Values joined by “and” are separate entries in the source; they are usually repeats but may differ in a detail not shown here. Identical values can stand only once.
Assay: xn = mol fraction of the nth substance listed

CC(=O)[O-].CC[NH2+]CC + O
Conditions | electrical conductivity [S/m] | viscosity [mPa·s]
283.15 K, 100.9 kPa, x1 = 0.168 | – | 27.4
283.15 K, 100.9 kPa, x1 = 0.24 | – | 55.1
283.15 K, 100.9 kPa, x1 = 0.351 | – | 92.3
288.15 K, 100.9 kPa, x1 = 0.549 | – | 105
295.65 K, 100.9 kPa, x1 = 0.168 | – | 14.67
298.15 K, 101 kPa, x1 = 0.0174 | 2.06 | –
298.15 K, 101 kPa, x1 = 0.0967 | 2.21 | –
298.15 K, 101 kPa, x1 = 0.199 | – | 14.82
298.15 K, 101 kPa, x1 = 0.1997 | 1.52 | –
298.15 K, 101 kPa, x1 = 0.6989 | 0.361 | –
298.15 K, 101 kPa, x1 = 0.877 | – | 57.2
300.65 K, 100.9 kPa, x1 = 0.168 | – | 11.78
303.15 K, 100.9 kPa, x1 = 0.168 | 2.24 | 10.62
303.15 K, 100.9 kPa, x1 = 0.351 | – | 30.6
305.65 K, 100.9 kPa, x1 = 0.24 | – | 17.47
310.65 K, 100.9 kPa, x1 = 0.24 | – | 14.12
310.65 K, 100.9 kPa, x1 = 0.549 | – | 32.6
313.15 K, 100.9 kPa, x1 = 0.549 | – | 29.2
315.65 K, 100.9 kPa, x1 = 0.119 | – | 4.25
315.65 K, 100.9 kPa, x1 = 0.168 | – | 6.65
315.65 K, 100.9 kPa, x1 = 0.714 | – | 30.1
318.15 K, 100.9 kPa, x1 = 0.007 | 2.25 | –
318.15 K, 100.9 kPa, x1 = 0.353 | 1.34 | –
328.15 K, 100.9 kPa, x1 = 0.015 | – | 0.728
328.15 K, 100.9 kPa, x1 = 0.549 | – | 16.18
330.65 K, 100.9 kPa, x1 = 0.015 | – | 0.692
330.65 K, 100.9 kPa, x1 = 0.055 | – | 1.339
330.65 K, 100.9 kPa, x1 = 0.119 | – | 2.78
330.65 K, 100.9 kPa, x1 = 0.168 | – | 4.17
333.15 K, 100.9 kPa, x1 = 0.007 | 2.64 | –
333.15 K, 100.9 kPa, x1 = 0.119 | – | 2.61
333.15 K, 100.9 kPa, x1 = 0.351 | – | 9.26
333.15 K, 100.9 kPa, x1 = 0.55 | 1.07 | –
333.15 K, 100.9 kPa, x1 = 0.84 | – | 15.7
335.65 K, 100.9 kPa, x1 = 0.168 | – | 3.63
340.65 K, 100.9 kPa, x1 = 0.168 | – | 3.19
343.15 K, 100.9 kPa, x1 = 0.055 | – | 1.052
348.15 K, 100.9 kPa, x1 = 0.353 | 2.81 | –
348.15 K, 100.9 kPa, x1 = 0.55 | 1.68 | –
348.15 K, 100.9 kPa, x1 = 0.714 | 1.3 | –
348.15 K, 100.9 kPa, x1 = 0.838 | 1.11 | –
363.15 K, 100.9 kPa, x1 = 0.168 | 9.08 | –
363.15 K, 100.9 kPa, x1 = 0.945 | 1.27 | –

CC(C)C[P+](C)(CC(C)C)CC(C)C.Cc1ccc(S(=O)(=O)[O-])cc1 + O
Conditions | viscosity [mPa·s]
293.15 K, 101 kPa, x2 = 0.7599 | 68
293.15 K, 101 kPa, x2 = 0.8779 | 23
293.15 K, 101 kPa, x2 = 0.9283 | 11.6
293.15 K, 101 kPa, x2 = 0.9729 | 4
298.15 K, 100 kPa, x1 = 0.003319 | 1.115
298.15 K, 100 kPa, x1 = 0.00854 | 1.475
308.15 K, 100 kPa, x1 = 0.009239 | 1.175
333.15 K, 100 kPa, x1 = 0.9022 | 221
353.15 K, 100 kPa, x1 = 0.9022 | 79

CCC(=O)[O-].C[n+]1ccn(CCO)c1 + O
100 kPa
Conditions | viscosity [mPa·s]
298.15 K, x1 = 0.7595 | 94.2
298.15 K, x1 = 0.8421 | 117
308.15 K, x1 = 0.8991 | 75.9
318.15 K, x1 = 0.8421 | 40.3
323.15 K, x1 = 0.8083 | 31.9
323.15 K, x1 = 0.8991 | 34.8
328.15 K, x1 = 0.8083 | 27
328.15 K, x1 = 0.9102 | 30.5
333.15 K, x1 = 0.8991 | 23.6

CCCCCCCCCCCCCC[n+]1ccccc1.O=C([O-])C(O)c1ccccc1 + O
electrical conductivity [S/m], 101 kPa
Conditions | 293.15 K | 298.15 K | 303.15 K | 308.15 K | 313.15 K
x1 = 6.85e-06 | 0.00248 | 0.00278 | 0.00309 | 0.0034 | 0.0037
x1 = 1.424e-05 | 0.00472 | 0.00529 | 0.00587 | 0.0065 | 0.0071
x1 = 2.126e-05 | 0.00671 | 0.0076 | 0.0084 | 0.0093 | 0.0101
x1 = 2.811e-05 | 0.0086 | 0.0097 | 0.0108 | 0.0122 | 0.0131
x1 = 3.46e-05 | 0.0103 | 0.0116 | 0.0129 | 0.0145 | 0.0157
x1 = 4.108e-05 | 0.0117 | 0.0131 | 0.0146 | 0.0161 | 0.0179
x1 = 4.811e-05 | 0.0129 | 0.0144 | 0.0161 | 0.0179 | 0.0198
x1 = 5.388e-05 | 0.0137 | 0.0154 | 0.0172 | 0.0191 | 0.0211
x1 = 5.982e-05 | 0.0145 | 0.0163 | 0.0182 | 0.0202 | 0.0224
x1 = 6.559e-05 | 0.0153 | 0.0172 | 0.0192 | 0.0213 | 0.0236
x1 = 7.081e-05 | 0.016 | 0.018 | 0.02 | 0.0223 | 0.0246
x1 = 7.604e-05 | 0.0167 | 0.0187 | 0.0209 | 0.0232 | 0.0258
x1 = 8.072e-05 | 0.0173 | 0.0194 | 0.0217 | 0.0241 | 0.0266

CCCCCCCCCCCCOS(=O)(=O)[O-].CCCC[n+]1ccn(C)c1 + O
Conditions | viscosity [mPa·s]
333 K, 101 kPa, x1 = 0.06262 | 970000

CCCCCCCCCCOS(=O)(=O)[O-].CC[n+]1ccn(C)c1 + O
101 kPa, frequency 0.0005 MHz, x1 = 0.075
Conditions | electrical conductivity [S/m]
308.15 K | 2.87
363.15 K | 6.86

CCCCCCCC[N+](CC)(CC)CC.O=S(=O)([N-]S(=O)(=O)C(F)(F)F)C(F)(F)F + O
101 kPa, x2 = 0.1435
Conditions | viscosity
318.05 K | 36.51 mPa·s and 55.8 mPa·s
323.05 K | 29.74 mPa·s

CCCC[N+](CCCC)(CCCC)Cc1ccccc1.[Cl-] + O
electrical conductivity [S/m], frequency 0.001 MHz
Conditions | 293.15 K | 298.15 K | 303.15 K | 308.15 K | 313.15 K | 318.15 K
100 kPa, x1 = 1.802e-05 | 0.0056 | 0.0105 | 0.0171 | 0.0235 | 0.0329 | –
100 kPa, x1 = 5.406e-05 | 0.0129 | 0.0203 | 0.0243 | 0.0288 | 0.0396 | –
100 kPa, x1 = 9.009e-05 | 0.0172 | 0.0255 | 0.0327 | 0.0349 | 0.0468 | –
101.3 kPa, x1 = 1.802e-05 | – | 0.0104 | – | 0.0139 | – | 0.0173
101.3 kPa, x1 = 5.406e-05 | – | 0.0231 | – | 0.0284 | – | 0.0345
101.3 kPa, x1 = 9.009e-05 | – | 0.0367 | – | 0.0457 | – | 0.0546

viscosity [mPa·s]
Conditions | 293.15 K | 298.15 K | 303.15 K | 308.15 K | 318.15 K
100 kPa, x1 = 1.802e-05 | 0.953 | 0.913 | 0.876 | – | –
100 kPa, x1 = 5.406e-05 | 0.961 | 0.921 | 0.88 | – | –
100 kPa, x1 = 9.009e-05 | 0.972 | 0.93 | – | – | –
101.3 kPa, x1 = 1.802e-05 | – | 0.906 | – | 0.775 | 0.643
101.3 kPa, x1 = 5.406e-05 | – | 0.923 | – | 0.793 | 0.659
101.3 kPa, x1 = 9.009e-05 | – | 0.942 | – | – | –

CC[n+]1ccccc1.O=S(=O)([N-]S(=O)(=O)C(F)(F)F)C(F)(F)F + O
viscosity [mPa·s], 101 kPa
Conditions | 298.15 K | 323.15 K | 343.15 K | 353.15 K
x2 = 0.005125 | – | 17.8 | – | 8.68
x2 = 0.08693 | 34.1 | 15.47 | 9.7 | –

CCO + O + CCCCCCCCCCCCOS(=O)(=O)[O-].[Na+]
298 K, 100 kPa, frequency 0.001 MHz
Conditions | electrical conductivity [S/m]
x1 = 0.01596, x3 = 0 | 0.00025
x1 = 0.02563, x2 = 0.9744 | 0.00026
x1 = 0.04623, x2 = 0.9538 | 0.00029
x1 = 0.06864, x2 = 0.9314 | 0.00031
x1 = 0.1203, x2 = 0.8797 | 0.00025
x1 = 0.1463, x2 = 0.8537 | 0.00025

CCC[N+]1(C)CCCCC1.[Br-] + O + CCCC[N+]1(C)CCCCC1.[Br-]
101 kPa
Conditions | viscosity [mPa·s]
298.15 K, x1 = 0.00449, x3 = 0.004485 | 1.305
298.15 K, x2 = 0.9578, x1 = 0.01421 | 2.565
303.15 K, x1 = 0.00449, x3 = 0.004485 | 1.135
303.15 K, x2 = 0.9577, x1 = 0.02117 | 2.165
303.15 K, x2 = 0.9734, x1 = 0.00893 | 1.615
308.15 K, x2 = 0.9733, x1 = 0.01334 | 1.355

CCCC[N+]1(C)CCCCC1.[Br-] + O + CC[N+]1(C)CCCCC1.[Br-]
101 kPa
Conditions | viscosity [mPa·s]
293.15 K, x2 = 0.9577, x3 = 0.02117 | 2.805
293.15 K, x3 = 0.005974, x1 = 0.002995 | 1.365
298.15 K, x2 = 0.9734, x3 = 0.00893 | 1.815
308.15 K, x2 = 0.9578, x3 = 0.0142 | 1.845

CCC[N+]1(C)CCCCC1.[Br-] + O + CC[N+]1(C)CCCCC1.[Br-]
Conditions | viscosity [mPa·s]
293.15 K, 101 kPa, x3 = 0.00299, x1 = 0.005976 | 1.575

— the CheMixHub ionic liquid set
